This is an account of results in patent publication US11767310B2, “Nicotinamide RIPK1 inhibitors” (AbbVie Inc., priority 2021, dated 2023).

Like-named read-outs stand apart in the source and are kept apart here.

Holding throughout (assay): Kinase binding screen
The target of one experiment is DAPK3 (Homo sapiens (Human), UniProt O43293). Particulars: read-out: Percent Control at 100 nM Compound Concentration.
The target in another experiment is CIT (Homo sapiens (Human), UniProt O14578). Particulars: read-out: Percent Control at 100 nM Compound Concentration.
The target of another experiment is RET(V804M) (Homo sapiens (Human), UniProt P07949, V804M). Particulars: read-out: Percent Control at 100 nM Compound Concentration.
In another experiment the target is PAK7 (Homo sapiens (Human), UniProt Q9P286). Particulars: read-out: Percent Control at 100 nM Compound Concentration.
In another experiment the target is FGFR3 (Homo sapiens (Human), UniProt P22607). Particulars: read-out: Percent Control at 100 nM Compound Concentration.
The next experiment deals with MST1R (Homo sapiens (Human), UniProt Q04912). Particulars: read-out: Percent Control at 100 nM Compound Concentration.
Experiment [1] concerns the target RSK3(Kin.Dom.1-N-terminal) (Homo sapiens (Human), UniProt Q15349). Particulars: read-out: Percent Control at 100 nM Compound Concentration.
The next experiment addresses RIPK4 (Homo sapiens (Human), UniProt P57078). Particulars: read-out: Percent Control at 100 nM Compound Concentration.
The target in a further experiment is SGK (Homo sapiens (Human), UniProt O00141). Particulars: read-out: Percent Control at 100 nM Compound Concentration.
The target in a further experiment is PRP4 (Homo sapiens (Human), UniProt Q13523). Particulars: read-out: Percent Control at 100 nM Compound Concentration. An excerpt: (§1) The screening method uses an immobilized ligand on a solid support, a DNA-tagged kinase, and a test compound. Test compounds that bind the kinase active site and directly (sterically) or indirectly (allosterically) prevent kinase binding to an immobilized ligand on a solid support will reduce the amount of kinase captured on the solid support. […] Screening “hits” are identified by measuring the amount of kinase captured in test compound versus control samples by using a quantitative, precise and ultra-sensitive qPCR method that detects the DNA label associated with the kinase. In a similar manner, dissociation constants (Kd) for test compound-kinase interactions are calculated by measuring the amount of kinase captured on the solid support as a function of the test compound concentration.
(§2) For most assays, kinase-tagged T7 phage strains were grown in parallel in 24-well blocks in an E. coli host derived from the BL21 strain. E. coli were grown to log-phase and infected with T7 phage from a frozen stock (multiplicity of infection=0.4) and incubated with shaking at 32° C. until lysis (90-150 minutes). The lysates were centrifuged (6,000×g) and filtered ([…]) to remove cell debris. The remaining kinases were produced in HEK-293 cells and subsequently tagged with DNA for qPCR detection. Streptavidin-coated magnetic beads were treated with biotinylated small molecule ligands for 30 minutes at room temperature to generate affinity resins for kinase assays. The liganded beads were blocked with excess biotin and washed with blocking buffer (SeaBlock (Pierce), 1% BSA, 0.05% Tween 20, 1 mM DTT) to remove unbound ligand and to reduce non-specific phage binding. […] Test compounds were prepared as 40× stocks in 100% DMSO and directly diluted into the assay. All reactions were performed in polypropylene 384-well plates in a final volume of 0.02 mL. […] The kinase concentration in the eluates was measured by qPCR.
(§3) The compounds were screened at 100 nM concentration, and results for the binding interactions are shown below in Table D as percent control, where lower numbers indicate stronger hits. The calculation for percent control is shown below. The negative control was DMSO (100% control), and a control compound was used as positive control (0% control).

The target of another experiment is PFCDPK1(P.falciparum) (Plasmodium falciparum (isolate 3D7), UniProt P62344). Particulars: read-out: Percent Control at 100 nM Compound Concentration.
Description: as §1, §2, §3

The target of the next experiment is PFPK5(P.falciparum) (Plasmodium falciparum (isolate 3D7), UniProt P61075). Particulars: read-out: Percent Control at 100 nM Compound Concentration.
Description: as §1, §2, §3

Another experiment concerns the target CDC2L5 (Homo sapiens (Human), UniProt Q14004). Particulars: read-out: Percent Control at 100 nM Compound Concentration.
Description: as §1, §2, §3

For another experiment, the target named is CSNK1A1L (Homo sapiens (Human), UniProt Q8N752). Particulars: read-out: Percent Control at 100 nM Compound Concentration.
For the next experiment, the target named is KIT(D816H) (Homo sapiens (Human), UniProt P10721, D816H). Particulars: read-out: Percent Control at 100 nM Compound Concentration.
Another experiment addresses CDKL1 (Homo sapiens (Human), UniProt Q00532). Particulars: read-out: Percent Control at 100 nM Compound Concentration.
For another experiment, the system named is FLT3(ITD,F691L). On the set-up: species or system human.
The target in experiment [2] is RSK4(Kin.Dom.1-N-terminal) (Homo sapiens (Human), UniProt Q9UK32). Particulars: read-out: Percent Control at 100 nM Compound Concentration.
The target in a further experiment is EGFR(E746-A750del) (Homo sapiens (Human), UniProt P00533, DEL746-750). Particulars: read-out: Percent Control at 100 nM Compound Concentration.
The next experiment has as its target VPS34 (Homo sapiens (Human), UniProt Q8NEB9). Particulars: read-out: Percent Control at 100 nM Compound Concentration.
Another experiment addresses ZAP70 (Homo sapiens (Human), UniProt P43403). Particulars: read-out: Percent Control at 100 nM Compound Concentration.
For the next experiment, the target named is SIK (Homo sapiens (Human), UniProt P57059). Particulars: read-out: Percent Control at 100 nM Compound Concentration.

Sequence of FGFR3 (P22607 23-806): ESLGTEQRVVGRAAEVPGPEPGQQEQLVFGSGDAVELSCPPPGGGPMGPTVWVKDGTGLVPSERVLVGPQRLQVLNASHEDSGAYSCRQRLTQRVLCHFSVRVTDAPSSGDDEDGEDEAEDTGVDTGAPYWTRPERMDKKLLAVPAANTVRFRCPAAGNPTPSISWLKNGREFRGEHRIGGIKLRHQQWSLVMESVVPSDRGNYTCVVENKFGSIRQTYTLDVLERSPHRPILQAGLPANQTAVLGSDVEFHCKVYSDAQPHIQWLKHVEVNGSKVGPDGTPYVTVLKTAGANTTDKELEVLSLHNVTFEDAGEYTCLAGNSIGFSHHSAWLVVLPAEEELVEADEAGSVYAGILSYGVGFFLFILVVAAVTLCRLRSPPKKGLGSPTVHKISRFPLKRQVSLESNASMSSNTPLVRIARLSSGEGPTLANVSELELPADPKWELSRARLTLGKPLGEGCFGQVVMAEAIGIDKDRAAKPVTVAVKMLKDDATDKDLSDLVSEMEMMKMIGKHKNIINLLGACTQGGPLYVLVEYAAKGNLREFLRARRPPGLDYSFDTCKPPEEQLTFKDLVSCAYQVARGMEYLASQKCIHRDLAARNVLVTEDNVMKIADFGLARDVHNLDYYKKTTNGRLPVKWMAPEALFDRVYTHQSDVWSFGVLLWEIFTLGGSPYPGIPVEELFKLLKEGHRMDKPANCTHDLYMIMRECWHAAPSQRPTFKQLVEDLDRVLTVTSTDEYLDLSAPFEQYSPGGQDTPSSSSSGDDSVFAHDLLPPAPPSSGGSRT
Sequence of DAPK3 (O43293 whole entry): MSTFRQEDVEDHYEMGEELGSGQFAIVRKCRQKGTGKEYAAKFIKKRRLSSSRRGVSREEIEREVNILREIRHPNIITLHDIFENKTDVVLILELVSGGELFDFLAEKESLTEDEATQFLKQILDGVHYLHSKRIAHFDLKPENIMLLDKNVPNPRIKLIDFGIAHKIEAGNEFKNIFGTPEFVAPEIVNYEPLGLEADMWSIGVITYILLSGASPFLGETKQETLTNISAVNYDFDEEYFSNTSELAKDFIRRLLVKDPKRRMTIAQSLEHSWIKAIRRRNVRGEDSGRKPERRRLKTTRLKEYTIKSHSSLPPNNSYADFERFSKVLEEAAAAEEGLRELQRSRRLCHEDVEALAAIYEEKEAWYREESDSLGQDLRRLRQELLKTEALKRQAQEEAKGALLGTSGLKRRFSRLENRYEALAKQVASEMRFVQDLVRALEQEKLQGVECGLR
Sequence of CSNK1A1L (Q8N752 whole entry): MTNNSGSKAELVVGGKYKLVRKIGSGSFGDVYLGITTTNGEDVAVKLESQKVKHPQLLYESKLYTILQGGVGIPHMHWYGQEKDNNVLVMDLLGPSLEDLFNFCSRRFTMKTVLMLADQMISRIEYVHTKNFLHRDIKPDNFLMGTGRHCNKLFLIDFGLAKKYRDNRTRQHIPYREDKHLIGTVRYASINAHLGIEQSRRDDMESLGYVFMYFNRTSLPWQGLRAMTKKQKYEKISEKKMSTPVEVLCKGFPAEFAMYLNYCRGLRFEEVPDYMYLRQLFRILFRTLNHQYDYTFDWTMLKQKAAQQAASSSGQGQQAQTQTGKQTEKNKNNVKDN
Sequence of KIT(D816H) (P10721 26-976 D816H): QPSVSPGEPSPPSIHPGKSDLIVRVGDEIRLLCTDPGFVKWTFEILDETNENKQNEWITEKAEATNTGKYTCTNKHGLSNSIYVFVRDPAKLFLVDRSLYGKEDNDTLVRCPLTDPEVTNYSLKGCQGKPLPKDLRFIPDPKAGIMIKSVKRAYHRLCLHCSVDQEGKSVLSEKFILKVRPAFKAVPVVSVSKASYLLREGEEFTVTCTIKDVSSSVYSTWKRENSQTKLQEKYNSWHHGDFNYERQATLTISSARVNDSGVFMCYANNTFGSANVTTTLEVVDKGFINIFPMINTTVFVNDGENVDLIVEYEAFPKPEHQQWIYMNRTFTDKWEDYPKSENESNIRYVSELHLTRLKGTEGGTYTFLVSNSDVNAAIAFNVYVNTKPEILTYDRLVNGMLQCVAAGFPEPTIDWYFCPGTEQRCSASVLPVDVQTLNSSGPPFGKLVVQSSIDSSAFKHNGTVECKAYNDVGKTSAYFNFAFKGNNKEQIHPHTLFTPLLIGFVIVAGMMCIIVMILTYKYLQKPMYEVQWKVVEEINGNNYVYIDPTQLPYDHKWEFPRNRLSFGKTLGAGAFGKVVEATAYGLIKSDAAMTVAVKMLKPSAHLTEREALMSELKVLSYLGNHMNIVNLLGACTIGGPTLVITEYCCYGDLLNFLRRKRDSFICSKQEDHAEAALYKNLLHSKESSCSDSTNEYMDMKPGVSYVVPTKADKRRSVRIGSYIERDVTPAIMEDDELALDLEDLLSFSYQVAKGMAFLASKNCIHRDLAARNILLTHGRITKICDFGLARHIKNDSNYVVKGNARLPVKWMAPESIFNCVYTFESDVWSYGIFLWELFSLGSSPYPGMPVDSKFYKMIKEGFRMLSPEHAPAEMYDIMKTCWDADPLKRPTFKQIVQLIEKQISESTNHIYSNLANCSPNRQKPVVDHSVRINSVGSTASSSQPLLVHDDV
Sequence of CDKL1 (Q00532 whole entry): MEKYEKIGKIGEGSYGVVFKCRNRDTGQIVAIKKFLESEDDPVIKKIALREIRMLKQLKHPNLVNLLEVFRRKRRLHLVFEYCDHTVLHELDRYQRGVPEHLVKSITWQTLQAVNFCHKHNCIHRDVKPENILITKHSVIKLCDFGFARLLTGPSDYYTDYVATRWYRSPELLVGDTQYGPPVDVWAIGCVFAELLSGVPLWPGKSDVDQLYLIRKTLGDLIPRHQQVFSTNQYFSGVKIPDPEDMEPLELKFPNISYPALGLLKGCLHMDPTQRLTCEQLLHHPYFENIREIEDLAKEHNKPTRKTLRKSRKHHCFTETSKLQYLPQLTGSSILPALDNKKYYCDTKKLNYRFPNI
Sequence of RET(V804M) (P07949 29-1114 V804M): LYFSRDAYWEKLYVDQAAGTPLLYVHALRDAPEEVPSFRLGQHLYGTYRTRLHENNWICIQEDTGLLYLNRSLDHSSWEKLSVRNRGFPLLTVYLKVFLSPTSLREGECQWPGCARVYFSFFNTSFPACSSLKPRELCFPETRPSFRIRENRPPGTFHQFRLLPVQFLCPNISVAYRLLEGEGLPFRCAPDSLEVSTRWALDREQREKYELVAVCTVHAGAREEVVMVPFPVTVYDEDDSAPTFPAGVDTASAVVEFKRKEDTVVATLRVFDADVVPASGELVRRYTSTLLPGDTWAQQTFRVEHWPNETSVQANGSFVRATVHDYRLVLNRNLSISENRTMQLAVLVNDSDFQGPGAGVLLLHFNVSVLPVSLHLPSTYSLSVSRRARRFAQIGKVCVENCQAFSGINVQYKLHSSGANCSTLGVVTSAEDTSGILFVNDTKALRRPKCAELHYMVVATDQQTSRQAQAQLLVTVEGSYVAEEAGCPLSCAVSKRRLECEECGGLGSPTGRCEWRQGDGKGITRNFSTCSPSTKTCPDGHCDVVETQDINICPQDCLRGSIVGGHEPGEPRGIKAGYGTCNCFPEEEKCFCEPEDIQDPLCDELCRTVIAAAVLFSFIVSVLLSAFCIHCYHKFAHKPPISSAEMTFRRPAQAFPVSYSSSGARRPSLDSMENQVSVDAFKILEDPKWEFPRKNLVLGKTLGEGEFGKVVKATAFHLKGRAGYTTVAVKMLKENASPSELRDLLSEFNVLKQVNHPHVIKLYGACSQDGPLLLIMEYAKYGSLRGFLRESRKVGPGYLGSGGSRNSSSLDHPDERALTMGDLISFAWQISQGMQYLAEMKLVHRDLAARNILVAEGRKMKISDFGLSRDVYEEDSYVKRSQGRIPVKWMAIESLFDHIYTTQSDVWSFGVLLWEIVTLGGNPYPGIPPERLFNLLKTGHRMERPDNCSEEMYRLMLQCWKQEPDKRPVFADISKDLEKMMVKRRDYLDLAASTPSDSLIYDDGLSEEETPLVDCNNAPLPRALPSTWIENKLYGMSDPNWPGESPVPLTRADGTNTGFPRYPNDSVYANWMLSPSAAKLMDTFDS
Sequence of RSK4(Kin.Dom.1-N-terminal) (Q9UK32 73-330): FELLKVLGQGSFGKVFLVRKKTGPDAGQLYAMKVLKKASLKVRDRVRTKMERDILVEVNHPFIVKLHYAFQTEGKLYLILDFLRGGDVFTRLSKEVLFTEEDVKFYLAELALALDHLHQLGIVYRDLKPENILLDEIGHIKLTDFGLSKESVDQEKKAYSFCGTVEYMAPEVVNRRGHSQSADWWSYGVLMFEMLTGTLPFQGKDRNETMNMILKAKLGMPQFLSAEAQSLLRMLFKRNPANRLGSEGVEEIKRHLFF
Sequence of SGK (O00141 whole entry): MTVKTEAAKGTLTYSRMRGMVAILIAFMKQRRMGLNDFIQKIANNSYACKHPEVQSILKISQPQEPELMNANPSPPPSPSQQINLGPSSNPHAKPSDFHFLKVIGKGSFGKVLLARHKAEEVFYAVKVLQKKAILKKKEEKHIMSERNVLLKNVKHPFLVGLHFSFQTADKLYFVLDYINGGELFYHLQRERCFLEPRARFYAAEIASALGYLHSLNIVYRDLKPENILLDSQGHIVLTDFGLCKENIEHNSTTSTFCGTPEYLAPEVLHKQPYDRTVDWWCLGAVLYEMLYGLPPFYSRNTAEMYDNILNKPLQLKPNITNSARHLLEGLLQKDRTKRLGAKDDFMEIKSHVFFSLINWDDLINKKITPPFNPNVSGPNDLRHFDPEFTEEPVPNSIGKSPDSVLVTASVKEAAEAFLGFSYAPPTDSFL
Sequence of RSK3(Kin.Dom.1-N-terminal) (Q15349 59-318): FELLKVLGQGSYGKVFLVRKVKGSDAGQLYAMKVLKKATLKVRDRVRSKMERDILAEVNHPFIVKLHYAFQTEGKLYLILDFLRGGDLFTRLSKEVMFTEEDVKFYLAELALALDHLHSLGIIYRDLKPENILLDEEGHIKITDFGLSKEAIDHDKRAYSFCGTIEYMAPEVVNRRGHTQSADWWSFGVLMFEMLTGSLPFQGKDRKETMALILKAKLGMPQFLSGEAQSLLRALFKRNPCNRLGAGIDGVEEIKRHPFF

With `CN(C[C@@H](O)Cc1ccccc1)C(=O)c1cncc(C#Cc2cnn(C(F)F)c2)c1` [Example 2, (S)-5-((1-(difluoromethyl)-1H-pyrazol-4-yl)ethynyl)-N-(2-hydroxy-3-phenylpropyl)-N-methylnicotinamide], the remaining activity at 0.1 µM was determined as 100% on DAPK3 (DAPK3); 98% at CIT (CIT); 100% on RET(V804M) (RET(V804M)); 100% on PAK7 (PAK7); 100% on FGFR3 (FGFR3); 98% on MST1R (MST1R). The remaining activity at 0.1 µM in experiment [1] (RSK3(Kin.Dom.1-N-terminal)) worked out at 97%; on RIPK4 (RIPK4), 100%; at SGK (SGK), 96%; at PRP4, 89%; at PFCDPK1(P.falciparum), 95%; at PFPK5(P.falciparum) it was 90%. Further, the remaining activity at 0.1 µM (at CDC2L5; on CSNK1A1L (CSNK1A1L); on KIT(D816H) (KIT(D816H)); at CDKL1 (CDKL1); in [2] (RSK4(Kin.Dom.1-N-terminal)); at EGFR(E746-A750del) (EGFR(E746-A750del))) was 100% throughout. Also, the remaining activity at 0.1 µM at VPS34 (VPS34) was 87%; on ZAP70 (ZAP70), 98%; on SIK (SIK) it was 100%. The “Percent Control at 100 nM Compound Concentration” value with FLT3(ITD,F691L) was determined as 98%.
As to `CN(C[C@H](Cc1ccccc1)OP(=O)(O)O)C(=O)c1cncc(C#Cc2cnn(C(F)F)c2)c1` [Example 19, (S)-1-(5-((1-(difluoromethyl)-1H-pyrazol-4-yl)ethynyl)-N-methylnicotinamido)-3-phenylpropan-2-yl dihydrogen phosphate], the remaining activity at 0.1 µM at DAPK3 is 97%; at CIT, 95%; at RET(V804M) it was 100%; at PAK7, 100%; at FGFR3 it was 100%; at MST1R it was 92%. Moreover, the remaining activity at 0.1 µM was 100% in [1]; 100% at RIPK4; 90% on SGK; 82% at PRP4; 96% at PFCDPK1(P.falciparum); 100% on PFPK5(P.falciparum). The remaining activity at 0.1 µM on CDC2L5 was determined as 100%; at CSNK1A1L, 97%; on KIT(D816H), 98%; at CDKL1, 100%; in experiment [2], 93%; on EGFR(E746-A750del), 94%. Besides, the remaining activity at 0.1 µM at VPS34 amounted to 90%; on ZAP70, 98%; on SIK, 100%. Moreover, the “Percent Control at 100 nM Compound Concentration” value in the experiment on FLT3(ITD,F691L) was 97%.
